Counter-ions that a name gives are not always drawn.
Biological target: T1, acetylcholinesterase from human erythrocyte origin (Homo sapiens, UniProt P22303)
T1 construct: Acetylcholinesterase from human erythrocyte origin (Sigma Chemical Co.); purchased Sigma Chemical Co; host or cells: human erythrocytes (tissue-derived enzyme)
Assay: Acetylcholinesterase-inhibitory action, acetylthiocholine method (Ellman method)
Assay type: biochemical
Conditions: repeated at least 3 times, read-out: AChE: IC50
Protocol: a) Measurement of Acetylcholinesterase-Inhibitory Action
Acetylcholinesterase-inhibitory action of the Example Compounds was measured using acetylcholinesterase from human erythrocyte origin according to the acetylthiocholine method (Ellman method).
Acetylcholinesterase from human erythrocyte origin (Sigma Chemical Co.) was dissolved in distilled water at a concentration of 0.2 IU/mL to give an enzyme authentic sample. To a 96-well microplate 20 μL of drug solution, 30 μL of 80 mM Tris-HCl (pH 7.4), 50 μL of enzyme authentic sample and 50 μL of 5 mM 5,5-dithio-bis(2-nitrobenzoic acid) (Sigma Chemical Co.) were added, and the plate was shaken for 10 seconds. Then, 50 μL of acetylthiocholine iodide (Sigma Chemical Co.) was added, and the plate was again shaken. Immediately after shaking, absorbance at 414 nm was measured at intervals of 30 seconds for 10 minutes.
The experiment was repeated at least 3 times for each compound to obtain 50% inhibitory concentration (IC50). Moreover, in the same manner as mentioned above, acetylcholinesterase-inhibiting activity of distigmine was measured.

T1 sequence (P22303 32-617 isoform P22303-2 limits assumed): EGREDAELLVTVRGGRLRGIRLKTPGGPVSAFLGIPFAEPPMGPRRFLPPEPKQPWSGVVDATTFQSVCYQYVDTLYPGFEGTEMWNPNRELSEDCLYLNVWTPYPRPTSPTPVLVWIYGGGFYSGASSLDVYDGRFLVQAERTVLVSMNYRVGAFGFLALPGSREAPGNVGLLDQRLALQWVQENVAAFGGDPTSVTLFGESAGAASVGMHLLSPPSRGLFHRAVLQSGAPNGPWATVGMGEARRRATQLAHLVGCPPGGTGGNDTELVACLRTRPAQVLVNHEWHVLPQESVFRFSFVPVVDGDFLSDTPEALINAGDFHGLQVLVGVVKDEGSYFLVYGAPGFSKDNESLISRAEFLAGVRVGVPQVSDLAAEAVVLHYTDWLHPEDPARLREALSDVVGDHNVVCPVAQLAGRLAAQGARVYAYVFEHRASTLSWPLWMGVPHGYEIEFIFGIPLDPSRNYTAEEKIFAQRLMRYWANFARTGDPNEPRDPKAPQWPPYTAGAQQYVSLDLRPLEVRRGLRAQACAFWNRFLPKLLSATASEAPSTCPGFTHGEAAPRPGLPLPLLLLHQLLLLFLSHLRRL

SMILES | IC50 [nM]
NS(=O)(=O)c1cc(C(=O)CCCCNCCc2ccccc2OC(F)(F)F)cc2c1OCC2 [Example 6, 5-[5-({2-[2-(Trifluoromethoxy)phenyl]ethyl}amino)-pentanoyl]-2,3-dihydro-1-benzofuran-7-sulfonamide tosylate] | 80
CN(CCCCCCN(C)C(=O)Oc1ccc[n+](C)c1)C(=O)Oc1ccc[n+](C)c1 [Distigmine, distigmine, reference compound] | 270

Biological target: T2, human adrenaline α1A receptor (Homo sapiens, UniProt P35348)
T2 construct: expressed in transfected cells
T2 sequence (P35348 1-466): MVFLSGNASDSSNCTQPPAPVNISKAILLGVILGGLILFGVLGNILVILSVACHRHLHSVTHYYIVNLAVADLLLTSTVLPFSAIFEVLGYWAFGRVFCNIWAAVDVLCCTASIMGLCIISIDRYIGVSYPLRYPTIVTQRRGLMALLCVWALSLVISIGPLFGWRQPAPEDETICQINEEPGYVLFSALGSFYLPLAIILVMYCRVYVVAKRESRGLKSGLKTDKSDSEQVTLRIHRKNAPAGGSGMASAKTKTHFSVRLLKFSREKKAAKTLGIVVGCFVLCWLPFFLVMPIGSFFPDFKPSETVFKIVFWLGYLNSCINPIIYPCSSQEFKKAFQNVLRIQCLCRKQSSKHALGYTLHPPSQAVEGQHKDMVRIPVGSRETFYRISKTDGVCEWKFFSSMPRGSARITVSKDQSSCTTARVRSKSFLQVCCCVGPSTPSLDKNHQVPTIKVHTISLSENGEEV
Assay: α1A receptor binding inhibitory activity, [3H]-Prazosin binding to CHO-K1 membrane fraction
Conditions: inhibition of [3H]-Prazosin (2.5 nM) binding to membrane fraction of CHO-K1 cells expressing human α1A receptor
Protocol: b) Measurement of α1 A Receptor Binding Inhibitory Activity
The genetic engineering procedures as described below were based on the methods described in the textbook (Maniatis, et al., Molecular Cloning, Cold Spring Harbor Laboratory, 1989) or the methods described in the protocols attached to the reagents.
(i) Preparation of Expression Plasmid of Human Adrenaline α1 A Receptor
An adrenaline α1 A receptor gene was cloned from human liver cDNA by means of a PCR method. PCR reaction was performed in a Gene Amp PCR System 9700 (Applied Biosystems) with 200 ng of a human liver cDNA library (Takara Shuzo Co., Ltd.) as a template, by adding 50 pmol of each of the primer sets shown below which were prepared with referring to the base sequence of the adrenaline α1 A receptor gene reported by Hirasawa A. et al. (Biochem. Biophys. Res. Commun., 195, 902-909 (1993)): 5′-[…]-3′ [SEQ ID NO: 1], and 5′-[…]-3′ [SEQ ID NO: 2], and using a TaKaRa Pyrobest DNA Polymerase (Takara Shuzo Co., Ltd.) (reaction condition: 45 cycles of 94° C. for 15 seconds and 68° C. for 3 minutes and 30 seconds).
Thus obtained PCR fragments were digested with a restriction enzyme Eco RI (Takara Shuzo Co., Ltd.) and Sal I (Takara Shuzo Co., Ltd.), and then subjected to electrophoresis on agarose gel to recover DNA fragments. […]

SMILES | IC50 [nM]
NS(=O)(=O)c1cc(C(=O)CCCCNCCc2ccccc2OC(F)(F)F)cc2c1OCC2 [Example 6, 5-[5-({2-[2-(Trifluoromethoxy)phenyl]ethyl}amino)-pentanoyl]-2,3-dihydro-1-benzofuran-7-sulfonamide tosylate] | 19
COc1ccccc1N1CCN(CCCNc2cc(=O)n(C)c(=O)n2C)CC1 [Urapidil, urapidil, reference compound] | 470

System: not given
Assay: not given
Conditions: not given

melting point [°C] | SMILES
61 to 63 | NS(=O)(=O)c1cc(C(O)CCCCNCCc2ccccc2OC(F)(F)F)cc2c1OCC2.O=C(O)/C=C\C(=O)O (stereo not shown)
167 to 169 | Cl.NS(=O)(=O)c1cc(C(=O)CCCCNCCc2ccccc2Cl)cc2c1CCC2
173 to 175 | CC(C)NS(=O)(=O)c1cc(C(=O)CCCCNCCc2ccccc2OC(F)(F)F)cc2c1OCC2.Cl
120 to 122 | CC(=O)Nc1cc(C(=O)CCCCNCCc2ccccc2OC(F)(F)F)cc2c1OCC2.Cl
111 to 113 | Cl.NS(=O)(=O)c1cc(C(=O)CCCCNCCc2ccccc2OC(F)(F)F)cc2c1OCCO2
156 to 158 | COc1ccc(C(=O)CCCCNCCc2ccccc2OC(F)(F)F)cc1S(=O)(=O)NC(C)C.Cl
112 to 114 | CS(=O)(=O)Nc1cc(C(=O)CCCCNCCc2ccccc2OC(F)(F)F)cc2c1OCC2.Cl
143 to 145 | CNS(=O)(=O)c1cc(C(=O)CCCCNCCc2ccccc2OC(F)(F)F)cc2c1CCC2.Cl
92 to 94 | COc1ccccc1CCNCCCCCC(=O)c1cc2c(c(S(N)(=O)=O)c1)OCC2.Cl
85 to 87 | Cl.NS(=O)(=O)c1cc(C(=O)CCCCCNCCc2ccccc2OC(F)(F)F)cc2c1OCC2
106 to 108 | COc1ccccc1CCNCCCCC(=O)c1cc2c(c(S(N)(=O)=O)c1)CCC2.Cl
135 to 137 | CNS(=O)(=O)c1cc(C(=O)CCCCNCCc2ccccc2OC(F)(F)F)cc2c1OCC2.Cl
139 to 141 | Cl.NS(=O)(=O)c1cc(C(=O)CCCCNCCc2ccccc2OC(F)(F)F)cc2c1CCC2
107 to 109 | Cl.NS(=O)(=O)c1cc(C(=O)CCCCCNCCc2ccccc2Cl)cc2c1OCC2
169 to 171 | COc1ccc(C(=O)CCCCNCCc2ccccc2OC(F)(F)F)cc1S(N)(=O)=O.Cl
